Data as given in EP0516157A1, “Preparation of 6-0-alkylelsamicin A derivatives” (priority 1991, dated 1992).
Where two headings read alike, the source gives them in different places.

Experiments:
[1] = system: lymphocytic leukemia P388; test: In vivo antitumor activity against P388 leukemia in mice; conditions: for T/C % of MST: P388, female CDF1 mice, Q1Dx3 ip; for anti-P388 activity compared with elsamicin A / toxicity compared with elsamicin A: P388 system, in words
Method: (§1) In vivo antitumor activity of the above fifteen derivatives was tested in the lymphocytic leukemia P388 and melanoma B16 systems. Female CDF₁ (for P388) and male BDF₁ (for B16) mice were inoculated by ip injection at 10⁶ P388 cells and 0.5 ml of a 10% B16 brei per mouse, respectively (day 0). […] The percent increase of median survival time (MST) of treated animals over that of untreated control animals was determined and reported as T/C %. Compounds showing T/C % values of 125 or greater are considered to have significant antitumor activity.

[2] = system: murine melanoma B16-F10 cells; test: In vitro cytotoxicity, neutral red staining after 72 hours; conditions: for Cytotoxicity IC50: 72 hours incubation
Method: (§2) For in vitro cytotoxicity experiment, murine melanoma B16-F10 cells were grown and maintained in Eagle's minimum essential medium (Nissui), which contains kanamycin (60 µg/ml), supplemented with heat-inactivated fetal calf serum (10%) and nonessential amino acids (0.6%) at 37°C under a humidified atmosphere in a 5% CO₂ incubator. Exponentially growing B16-F10 cells were harvested, counted and suspended in the culture medium at the concentration of 2.0x10⁴ cells/ml. The cell suspension (180 µl) was planted into wells of a 96-well microtiter plate and incubated for 24 hours. Test compounds (20 µl) were added to the wells and the plates were further incubated for 72 hours. The cytotoxic activity was colorimetrically determined at 540 nm after staining viable cells with neutral red solution.

[3] = system: melanoma B16; test: In vivo antitumor activity against B16 melanoma in mice; conditions: for No. of survivors/tested on day 50 / T/C % of MST: Q4Dx3 ip; for T/C % of MST: B16, male BDF1 mice
Method: as §1

[4] = system: murine melanoma B16-F10 cells
Method: as §2

Row | Compound | T/C % of MST ([1]; 0.1 mg/kg/day) | T/C % of MST ([1]; 0.3 mg/kg/day) | T/C % of MST ([1]; 1 mg/kg/day) | T/C % of MST ([1]; 3 mg/kg/day) | T/C % of MST ([1]; 10 mg/kg/day) | T/C % of MST ([1]; 20 mg/kg/day) | T/C % of MST ([1]; 40 mg/kg/day) | anti-P388 activity compared with elsamicin A [1] | toxicity compared with elsamicin A [1] | Cytotoxicity IC50 [2] | cytotoxicity compared with the parent compound ([2]; in words, versus elsamicin A) | No. of survivors/tested on day 50 ([3]; B16, 10 mg/kg/day) | T/C % of MST ([3]; 0.1 mg/kg/day) | T/C % of MST ([3]; 0.3 mg/kg/day) | T/C % of MST ([3]; 1 mg/kg/day) | T/C % of MST ([3]; 3 mg/kg/day) | T/C % of MST ([3]; 10 mg/kg/day) | chemotherapeutic activity in the B16 system ([3]; B16 system, in words) | cytotoxicity compared with the parent compound [4] | No. of survivors/tested on day 50 ([3]; B16, 3 mg/kg/day)
1 | CCOc1c2cccc(OC3OC(C)C(O)C(C)(O)C3OC3OC(C)C(O)C(OC)C3N)c2c2oc(=O)c3c(C)ccc4oc(=O)c1c2c43 (centres unmarked) [Compound 7b, 6-O-Ethylelsamicin A] | 110% | 125% | 130% | 150% | 170% | 170% | 180% | as active as elsamicin A | seemed to be less toxic | 0.06 µg/mL | approximately equipotent cytotoxicity to the parent compound | (3/4) | 103% | 113% | 144% | 178% | ≧313% | excellent chemotherapeutic activity | – | –
2 | CCCOc1c2cccc(OC3OC(C)C(O)C(C)(O)C3OC3OC(C)C(O)C(OC)C3N)c2c2oc(=O)c3c(C)ccc4oc(=O)c1c2c43 (centres unmarked) [Compound 7c, 6-O-n-Propylelsamicin A] | 105% | 129% | 133% | 152% | 152% | 155% | 159% | as active as elsamicin A | seemed to be less toxic | 0.03 µg/mL | – | – | – | – | – | – | – | – | approximately equipotent cytotoxicity to the parent compound | –
3 | CCCCCCOc1c2cccc(OC3OC(C)C(O)C(C)(O)C3OC3OC(C)C(O)C(OC)C3N)c2c2oc(=O)c3c(C)ccc4oc(=O)c1c2c43 (centres unmarked) [Compound 7f, 6-O-n-Hexylelsamicin A] | 100% | 105% | 120% | 130% | 140% | – | – | – | – | 0.11 µg/mL | – | – | 107% | 111% | 129% | 132% | 146% | – | – | –
4 | COC1C(N)C(OC2C(Oc3cccc4c(OCCCN)c5c(=O)oc6ccc(C)c7c(=O)oc(c34)c5c67)OC(C)C3OC(C)(C)OC32C)OC(C)C1O (centres unmarked) [Compound 8i, 6-O-(3-Aminopropyl)-3',4'-isopropylideneelsamicin A] | – | 105% | 110% | 120% | 135% | – | – | – | – | 1.8 µg/mL | – | – | – | – | – | – | – | – | – | –
5 | COC1C(N)C(OC2C(Oc3cccc4c(OCCCN5C(=O)c6ccccc6C5=O)c5c(=O)oc6ccc(C)c7c(=O)oc(c34)c5c67)OC(C)C(O)C2(C)O)OC(C)C1O (centres unmarked) [Compound 7h, 6-O-(3-phthalimidopropyl)elsamicin A] | 105% | 105% | 120% | 125% | 140% | – | – | – | – | 0.71 µg/mL | – | – | – | – | – | – | – | – | – | –
6 | COC1C(N)C(OC2C(Oc3cccc4c(OCCCN5C(=O)c6ccccc6C5=O)c5c(=O)oc6ccc(C)c7c(=O)oc(c34)c5c67)OC(C)C3OC(C)(C)OC32C)OC(C)C1O (centres unmarked) [Compound 8h, 3'4'-O-Isopropylidene-6-O-(3-phthalimidopropyl)elsamicin A] | 100% | 110% | 110% | 120% | 130% | – | – | – | – | 0.4 µg/mL | – | – | – | – | – | – | – | – | – | –
7 | CCCCCCCCCCOc1c2cccc(OC3OC(C)C(O)C(C)(O)C3OC3OC(C)C(O)C(OC)C3N)c2c2oc(=O)c3c(C)ccc4oc(=O)c1c2c43 (centres unmarked) [Compound 7g, 6-O-n-Decylelsamicin A] | – | 115% | 105% | 115% | 100% | – | – | – | – | 2.5 µg/mL | – | – | – | 107% | 126% | 153% | 183% | – | – | –
8 | COC1C(N)C(OC2C(Oc3cccc4c(OC(C)C)c5c(=O)oc6ccc(C)c7c(=O)oc(c34)c5c67)OC(C)C(O)C2(C)O)OC(C)C1O (centres unmarked) [Compound 7d, 6-O-Isopropylelsamicin A] | 95% | 119% | 124% | 133% | 148% | – | – | – | – | 0.49 µg/mL | – | – | – | – | – | – | – | – | – | –
9 | CCCCOc1c2cccc(OC3OC(C)C(O)C(C)(O)C3OC3OC(C)C(O)C(OC)C3N)c2c2oc(=O)c3c(C)ccc4oc(=O)c1c2c43 (centres unmarked) [Compound 7e, 6-O-n-Butylelsamicin A] | 110% | 124% | 133% | 152% | 162% | 141% | 164% | as active as elsamicin A | seemed to be less toxic | 0.03 µg/mL | – | – | – | 123% | 127% | 160% | 213% | – | approximately equipotent cytotoxicity to the parent compound | –
10 | COc1c2cccc(OC3OC(C)C4OC(C)(C)OC4(C)C3OC3OC(C)C(O)C(OC)C3N)c2c2oc(=O)c3c(C)ccc4oc(=O)c1c2c43 (centres unmarked) [Compound 8a, 3',4'-O-Isopropylidene-6-O-methylelsamicin A] | – | – | – | – | – | – | – | – | – | 0.08 µg/mL | – | – | – | – | – | – | – | – | – | –
11 | CCOc1c2cccc(OC3OC(C)C4OC(C)(C)OC4(C)C3OC3OC(C)C(O)C(OC)C3N)c2c2oc(=O)c3c(C)ccc4oc(=O)c1c2c43 (centres unmarked) [Compound 8b, 6-O-Ethyl-3'4'-O-isopropylideneelsamicin A] | 110% | 125% | 125% | 140% | 190% | 200% | – | as active as elsamicin A | seemed to be less toxic | 0.06 µg/mL | – | – | 97% | 106% | 119% | 153% | 216% | – | approximately equipotent cytotoxicity to the parent compound | –
12 | CCCCCCOc1c2cccc(OC3OC(C)C4OC(C)(C)OC4(C)C3OC3OC(C)C(O)C(OC)C3N)c2c2oc(=O)c3c(C)ccc4oc(=O)c1c2c43 (centres unmarked) [Compound 8f, 6-O-n-Hexyl-3'4'-O-isopropylideneelsamicin A] | 110% | 110% | 110% | 115% | 120% | – | – | – | – | 0.9 µg/mL | – | – | – | – | – | – | – | – | – | –
13 | CCCCCCCCCCOc1c2cccc(OC3OC(C)C4OC(C)(C)OC4(C)C3OC3OC(C)C(O)C(OC)C3N)c2c2oc(=O)c3c(C)ccc4oc(=O)c1c2c43 (centres unmarked) [Compound 8g, 6-O-n-Decyl-3'4'-O-isopropylideneelsamicin A] | – | 115% | 105% | 115% | 100% | – | – | – | – | 2.9 µg/mL | – | – | – | – | – | – | – | – | – | –
14 | COc1c2cccc(OC3OC(C)C(O)C(C)(O)C3OC3OC(C)C(O)C(OC)C3N)c2c2oc(=O)c3c(C)ccc4oc(=O)c1c2c43 (centres unmarked) [Compound 7a, 6-O-Methylelsamicin A] | – | – | – | – | – | – | – | – | – | 0.19 µg/mL | – | – | – | – | – | – | – | – | – | –
15 | COC1C(N)C(OC2C(Oc3cccc4c(OCCCN)c5c(=O)oc6ccc(C)c7c(=O)oc(c34)c5c67)OC(C)C(O)C2(C)O)OC(C)C1O (centres unmarked) [Compound 7i, 6-O-(3-Aminopropyl)elsamicin A] | – | 105% | 110% | 110% | 130% | – | – | – | – | 2.3 µg/mL | – | – | – | – | – | – | – | – | – | –
16 | COC1C(N)C(OC2C(Oc3cccc4c(O)c5c(=O)oc6ccc(C)c7c(=O)oc(c34)c5c67)OC(C)C(O)C2(C)O)OC(C)C1O (centres unmarked) [Elsamicin A (1), Elsamicin A] | 124% | 138% | 155% | 180% | 206% | Tox | – | – | – | 0.05 µg/mL | – | 9/24 | 120% | 139% | 178% | ≥ 216% | ≥ 305% | – | – | 2/24
